6 compounds from patent US6225260A, “Quaternary ammonium salts of a sulfonylurea” (Lonza Inc., priority 1999, dated 2001) can be followed below.

In general, solubility refers to the dissolved amount per volume that the medium holds. Higher therefore signals a readily soluble substance.

Values after ≈ are worked out from the molar mass of the structure shown.

Data set [1] can be described thus: Solubility in epoxidized soybean oil, methyl caprylate/caprate, and cottonseed oil.
A short description of data set [2]: Aging / storage stability: relative decomposition of the sulfonylurea by HPLC. The class given is physicochemical. Conditions: 10080 min.
Experimental: Into 7.8 g of epoxidized soybean oil (ESBO) was added with stirring: 1.18 g methyl 3-[[[[(4-methoxy-6-methyl-1,3,5-triazin-2-yl)amino]carbonyl]amino]sulfonyl]-2-thiophenecarboxylate tech (98.1%), 1.31 g of anhydrous diisobutylphenoxy ethoxyethyl dimethylbenzyl ammonium chloride in H2 O (Hyamine 1622™), 0.11 g Ca(OH)2, and 0.03 g calcium acetate.
In a vial was vortexed the following: 0.214 g methyl 2-[[[[[(4,6-dimethoxy-2-pyrimidinyl)amino]carbonyl]amino]sulfonyl]methyl]benzoate (98.3%),0.192 g of a 25% aqueous solution of tetramethyl ammonium hydroxide, and 4.32 g of water to produce the sulfonylurea quaternary salt.
Data set [3] deals with Aspergillus niger. As to conditions: 6 days, Czapek solution agar. The text has this:
A. niger ATCC #16404 was contacted with each sulfonylurea salt for 6 days in a Czapek solution agar.

Data set [4] deals with Setaria faberi (Giant Foxtail). Kind of data set: Herbicidal efficacy against giant foxtail (green fresh weight, percent control). The class given is in vivo. As to the method:
(§1) Aqueous solutions of the benzethonium salts of each sulfonylurea were prepared with and without 0.25% by weight of the nonionic surfactant polyoxyethylene (20) monolaurate (Tween 20®, trademark of ICI), based upon 100% total weight of aqueous solution. The aqueous solutions were sprayed onto giant foxtail (Setaria faberi) and large crabgrass (Digitaria sanguinalis) with a spray volume of 187 L/ha (liters/hectare). The active amount of each salt applied in grams/hectare (g/ha) is shown in Table 2 with respect to giant foxtail and Table 3 with respect to large crabgrass. The plants were evaluated two weeks after treatment with the aqueous solution by obtaining their green fresh weights and comparing these weights to an untreated control treatment to compute percent control values. Six replications were made of each treatment. All data were analyzed using a Fisher's Least Significant Difference (L.S.D.) Test at the 0.05 level.
(§2) Aqueous solutions were prepared with 75% concentrated, water-dispersible granules (75 DF) of nicosulfuron and rimsulfuron available as Accent® herbicide and Titus® herbicide (trademarks of DuPont) with or without 0.25% by weight of Tween 20®. These aqueous solutions were tested against giant foxtail (Setaria faberi) and large crabgrass (Digitaria sanguinalis) as described in Example 4.

Data set [5] relates to Digitaria sanguinalis (Large Crabgrass). The experiment in a line: Herbicidal efficacy against large crabgrass (green fresh weight, percent control). Format: in vivo. The protocol: as §1, §2
The nature of data set [6]: Aging in deionized water: relative degradation of the sulfonylurea by HPLC. Format: physicochemical. As to conditions: saturated in deionized water (500 ppm), 25° C. for 30 days. The protocol:
Deionized water (5 g) was saturated with 2-[[[[(4,6-dimethoxy-2-pyrimidinyl)amino]carbonyl]amino]sulfonyl]-N,N-dimethyl-3-pyridinecarboxamide tech (500 ppm) and aged at 25° C. for 30 days.

The nature of data set [7]: physchem. As to conditions: water, pH 7, water.
A short description of data set [8]: Hydrolytic stability in aqueous solution by HPLC (storage at room temperature for 36 days). Conditions: 100 ppm in deionized water, after 36 days, read-out: percentage of material present after storage. Format: physicochemical. The protocol: Aqueous solutions containing 100 ppm of nicosulfuron or its benzethonium salt were prepared with deionized water and stored at room temperature for 36 days. The solutions were analyzed by HPLC with an Inersil ODS2 column and an ultraviolet detector at a wavelength of 254 nm. The mobile phase through the column consisted of acetonitrile and water at a 1:1 volume ratio. The flow rate through the column was 1 ml/min.

Consider `CCCCCCCCCCCC[N+](CCCCCCCCCCCC)(CCCCCCCCCCCC)CCCCCCCCCCCC.COc1cc(OC)nc(NC(=O)[N-]S(=O)(=O)c2c(-c3nnn(C)n3)cnn2C)n1` [B], for which the “solubility in organic solvents” value in data set [1] is recorded as “more than 50%”. Besides, the relative degradation in data set [2] (50% solutions in epoxidized soybean oil, methyl caprylate/caprate, and cottonseed oil, 1 week at 54° C.) was 20-45%.
As for `CC(C)(C)CC(C)(C)c1ccc(OCCOCC[N+](C)(C)Cc2ccccc2)cc1.COC(=O)c1ccccc1S(=O)(=O)[N-]C(=O)Nc1nc(C)nc(OC)n1` [Benzethonium salt of metsulfuron-methyl], the “Minimum Effective Concentration” value in data set [3] was 300-1000 ppm.
With `CC(C)(C)CC(C)(C)c1ccc(OCCOCC[N+](C)(C)Cc2ccccc2)cc1.COc1cc(OC)nc(NC(=O)[N-]S(=O)(=O)c2ncccc2C(=O)N(C)C)n1` [Benzethonium salt of nicosulfuron], the “% Control” value is on record as 97% in data set [4] (6 g/ha, 0.25% Tween 20, two weeks after treatment); 39% in data set [4] (6 g/ha, no nonionic surfactant, two weeks after treatment); 94% in data set [5] (20 g/ha, 0.25% Tween 20, two weeks after treatment); 34% in data set [5] (20 g/ha, no nonionic surfactant, two weeks after treatment). Also, in data set [3], the “Minimum Effective Concentration” value is reported as 100-300 ppm.
In the case of `CC(C)(C)CC(C)(C)c1ccc(OCCOCC[N+](C)(C)Cc2ccccc2)cc1.CCS(=O)(=O)c1cccnc1S(=O)(=O)[N-]C(=O)Nc1nc(OC)cc(OC)n1` [Benzethonium salt of rimsulfuron], the “% Control” value in data set [4] (3 g/ha, 0.25% Tween 20, two weeks after treatment) stood at 95%; in data set [4] (3 g/ha, no nonionic surfactant, two weeks after treatment), 25%; in data set [5] (10 g/ha, 0.25% Tween 20, two weeks after treatment) it was 94%; in data set [5] (10 g/ha, no nonionic surfactant, two weeks after treatment) it was 58%. Moreover, in data set [3], the “Minimum Effective Concentration” value is on record as 100-300 ppm.
Consider `COC(=O)c1ccccc1CS(=O)(=O)[N-]C(=O)Nc1nc(OC)cc(OC)n1.C[N+](C)(C)C` [C], for which the “degradation of the sulfonylurea” value in data set [2] (aqueous solution, one week at 54° C.) came to 52%.
On to `COc1cc(OC)nc(NC(=O)NS(=O)(=O)c2ncccc2C(=O)N(C)C)n1` [nicosulfuron, 2-[[[[(4,6-dimethoxy-2-pyrimidinyl)amino]carbonyl]amino]suflonyl]-N,N-dimethyl-3-pyridinecarboxamide], for which, in data set [6], the degraded at 720 h stood at 90%. The solubility in data set [7] was 12 mg/mL (≈ 29.2 mM). Further, the remaining at 864 h in data set [8] was found to be 7%.
